Test results reported in patent US20110300110A1, “ENAMINOCARBONYL COMPOUND/BENEFICIAL ORGANISM COMBINATIONS” (BAYER CROPSCIENCE AG, priority 2008, published 2011).

Tests used:
Format in all cases: in vivo
[1] = test system: Aphidoletes aphidimyza larvae; test: Larvae treatment Aphidoletes: kill of beneficial species larvae on Savoy cabbage
Description: (§1) Foliar treatment is carried out using compound (I-5) in a concentration of 75 g of active compound per hectare.
(§2) Drench treatment is carried out using compound (I-5) in a concentration of 10 mg of active compound per plant.
(§3) Foliar treatment with Karate Zeon CS100 as toxic control was carried out in a concentration of 12.5 g of active compound per hectare.
(§4) Beneficial species: Aphidoletes aphidimyza larvae Pest: Myzus persicae
(§5) Each experiment is carried out in 3 repetitions.
(§6) Per plot, 6 Savoy cabbage plants are placed into a planting-out tray and infested with Myzus persicae. About 1 week later, with a well-established Myzus population, the Aphidoletes aphidimyza are added. The application is carried after about 2 weeks once sufficient L2 stage Aphidoletes larvae are present (at least 20 larvae per tray).
(§7) In preparation for the application, the plants are reduced to 4 healthy green leaves.
(§8) Immediately prior to the application, the Myzus population and the number of Aphidoletes larvae are rated. For the application, all 6 plants of a plot are placed onto the turntable, and the amount of spray liquor for 0.666 m^2 is applied while turning slowly. After the application, the trays are placed into the standard cages.
(§9) For each plant, the number of Myzus persicae is estimated at the beginning at the appropriate points in time, and the larvae are counted accurately.

[2] = test system: Myzus persicae; test: Larvae treatment Aphidoletes: infestation by Myzus persicae on Savoy cabbage; conditions: Savoy cabbage with Aphidoletes larvae
Description: as §1, §2, §3, §4, §5, §6, §7, §8, §9

[3] = test system: adult Nesidiocoris tenuis; test: Residual test with adult Nesidiocoris tenuis on tomato leaves
Description: Foliar treatment is carried out using compound (I-5) in a concentration of 150 g of active compound per hectare.
as §2
(§10) Foliar treatment with Karate Zeon CS100 as toxic control was carried out in a concentration of 12.5 g of active compound per hectare. The active compound in its respective formulation is brought to the required concentration by dilution with water.
(§11) Tomato plants cultivated in a greenhouse are treated with the respective active compound solutions. 1, 8, 15 and 22 days after the application, leaves are plucked from the test plants (5 samples per plot). The individual leaves are then mounted in test cages. 10 adult Nesidiocoris tenuis are added to each cage. The test cages are placed under controlled conditions in a climatized chamber. The kill of the insects is determined after 24, 48 and 72 hours of exposure.

[4] = test system: adult Orius laevigatus; test: Residual test with adult Orius laevigatus on bell-pepper leaves
Description: Foliar treatment is carried out using compound (I-5) in a concentration of 100 g of active compound per hectare.
Drench treatment is carried out using compound (I-5) in a concentration of 15 mg of active compound per plant.
as §10
as §11, with “Bell-pepper” for “Tomato”, “16” for “15”, “23” for “22”, “Orius laevigatus” for “Nesidiocoris tenuis”

[5] = test system: Episyrphus balteatus larvae; test: Larvae treatment Episyrphus: kill of beneficial species larvae on Savoy cabbage
Description: as §1, §2, §3
Beneficial species: Episyrphus balteatus larvae Pest: Myzus persicae
Per experiment, 3 repetitions with in each case 2 pot cages with in each case 5 larvae are carried out.
For the experiment, Savoy cabbage plants are grown in pots having a diameter of 14 cm, placed in a breeding cage and infested thoroughly with Myzus persicae.
After the spray coating has dried on, a quartz sand layer of a thickness of about 1 cm is applied to the soil in the pot, and the pot cage is put over the plant. In each case 5 Episyrphus larvae are then counted out, and in each case 5 specimen are added to the plants in the pot cage.
For each plant, at the beginning the Myzus persicae number is estimated at the appropriate points in time and the dead, dying and alive larvae are counted separately. All larvae, i.e. all larvae present on the plant and the surface of the quartz sand base, are counted.

[6] = test system: Anthocoris nemoralis adults; test: Treatment Anthocoris adult: kill of beneficial species adults on maize
Description: as §1, §2, §3
Beneficial species: Anthocoris nemoralis adults Pest: Metopolophium dirhodum
Per experiment, 3 repetitions with in each case 2 pot cages with in each case 5 adults are carried out.
For the experiment, maize plants are grown in pots having a diameter of 14 cm, placed in a breeding cage and infested thoroughly with Metopolophium dirhodum. Per experiment, 6 pots having a well-established aphid population are selected and the aphids are rated by estimation of their number. The plants are treated with the active compound solution of the appropriate concentration.
After the spray coating has dried on, a quartz sand layer of a thickness of about 1 cm is applied to the soil in the pot, and the pot cage is put over the plant.
In each case 5 Anthocoris adults are then counted out, and in each case 5 specimen are added to the plants in the pot cage.
For each plant, at the beginning the Metopolophium dirhodum number is estimated at the appropriate points in time and the dead, dying and alive adults are counted separately. All adults, i.e. all adults present on the plant and the surface of the quartz sand base, are counted.

[7] = 0 days after application, drench 10 mg a.i./plant
[8] = 0 days after application, foliar: (I-5) 75 g a.i./ha, Karate Zeon CS100 12.5 g a.i./ha
[9] = 1 day after application, drench 10 mg a.i./plant
[10] = 1 day after application, foliar: (I-5) 75 g a.i./ha, Karate Zeon CS100 12.5 g a.i./ha
[11] = 3 days after application, drench 10 mg a.i./plant
[12] = 3 days after application, foliar: (I-5) 75 g a.i./ha, Karate Zeon CS100 12.5 g a.i./ha
[13] = 5 days after application, drench 10 mg a.i./plant
[14] = 5 days after application, foliar: (I-5) 75 g a.i./ha, Karate Zeon CS100 12.5 g a.i./ha

O=C1C=C(N(Cc2ccc(Cl)nc2)CC(F)F)CO1 [compound (I-5), 4-{[(6-chloropyrid-3-yl)methyl](2,2-difluoroethyl)amino}furan-2(5H)-one]
kill of Aphidoteles aphidimyza larvae [% Abbott] [1, 7]: 0% | kill of Aphidoteles aphidimyza larvae [% Abbott] [1, 8]: 0% | kill of Aphidoteles aphidimyza larvae [% Abbott] [1, 9]: 3.2% | kill of Aphidoteles aphidimyza larvae [% Abbott] [1, 10]: 10.2% | kill of Aphidoteles aphidimyza larvae [% Abbott] [1, 11]: 4.3% | kill of Aphidoteles aphidimyza larvae [% Abbott] [1, 12]: 10.5% | kill of Aphidoteles aphidimyza larvae [% Abbott] [1, 13]: 7.8% | kill of Aphidoteles aphidimyza larvae [% Abbott] [1, 14]: 15.2% | Infestation by Myzus persicae (number per plant) [2, 13]: 19.4 number per plant | Infestation by Myzus persicae (number per plant) [2, 14]: 0 number per plant | Infestation by Myzus persicae (number per plant) ([2]; prior to application (baseline), drench 10 mg a.i./plant): 367 number per plant | Infestation by Myzus persicae (number per plant) ([2]; prior to application (baseline), foliar: (I-5) 75 g a.i./ha, Karate Zeon CS100 12.5 g a.i./ha): 344 number per plant | Activity against adult Nesidiocoris tenuis on tomato [% kill according to Schneider-Orelli] ([3]; leaves plucked 1 day after application, drench 10 mg a.i./plant): 4.9% | Activity against adult Nesidiocoris tenuis on tomato [% kill according to Schneider-Orelli] ([3]; leaves plucked 1 day after application, foliar: (I-5) 150 g a.i./ha, Karate Zeon CS100 12.5 g a.i./ha): 91.1% | Activity against adult Nesidiocoris tenuis on tomato [% kill according to Schneider-Orelli] ([3]; leaves plucked 8 days after application, drench 10 mg a.i./plant): 47.3% | Activity against adult Nesidiocoris tenuis on tomato [% kill according to Schneider-Orelli] ([3]; leaves plucked 8 days after application, foliar: (I-5) 150 g a.i./ha, Karate Zeon CS100 12.5 g a.i./ha): 81.3% | Activity against adult Nesidiocoris tenuis on tomato [% kill according to Schneider-Orelli] ([3]; leaves plucked 15 days after application, drench 10 mg a.i./plant): 24.4% | Activity against adult Nesidiocoris tenuis on tomato [% kill according to Schneider-Orelli] ([3]; leaves plucked 15 days after application, foliar: (I-5) 150 g a.i./ha, Karate Zeon CS100 12.5 g a.i./ha): 32.1% | Activity against adult Nesidiocoris tenuis on tomato [% kill according to Schneider-Orelli] ([3]; leaves plucked 22 days after application, drench 10 mg a.i./plant): 66% | Activity against adult Nesidiocoris tenuis on tomato [% kill according to Schneider-Orelli] ([3]; leaves plucked 22 days after application, foliar: (I-5) 150 g a.i./ha, Karate Zeon CS100 12.5 g a.i./ha): 45.8% | Activity against adult Orius leavigatus on bell-pepper [% kill calculated according to Schneider-Orelli] ([4]; leaves plucked 1 day after application, drench 15 mg a.i./plant): 36.3% | Activity against adult Orius leavigatus on bell-pepper [% kill calculated according to Schneider-Orelli] ([4]; leaves plucked 1 day after application, foliar: (I-5) 100 g a.i./ha, Karate Zeon CS100 12.5 g a.i./ha): 100% | Activity against adult Orius leavigatus on bell-pepper [% kill calculated according to Schneider-Orelli] ([4]; leaves plucked 8 days after application, drench 15 mg a.i./plant): 86.7% | Activity against adult Orius leavigatus on bell-pepper [% kill calculated according to Schneider-Orelli] ([4]; leaves plucked 8 days after application, foliar: (I-5) 100 g a.i./ha, Karate Zeon CS100 12.5 g a.i./ha): 98.1% | Activity against adult Orius leavigatus on bell-pepper [% kill calculated according to Schneider-Orelli] ([4]; leaves plucked 16 days after application, drench 15 mg a.i./plant): 72.3% | Activity against adult Orius leavigatus on bell-pepper [% kill calculated according to Schneider-Orelli] ([4]; leaves plucked 16 days after application, foliar: (I-5) 100 g a.i./ha, Karate Zeon CS100 12.5 g a.i./ha): 100% | Activity against adult Orius leavigatus on bell-pepper [% kill calculated according to Schneider-Orelli] ([4]; leaves plucked 23 days after application, drench 15 mg a.i./plant): 92.1% | Activity against adult Orius leavigatus on bell-pepper [% kill calculated according to Schneider-Orelli] ([4]; leaves plucked 23 days after application, foliar: (I-5) 100 g a.i./ha, Karate Zeon CS100 12.5 g a.i./ha): 100% | kill of Episyrphus balteatus larvae [% Abbott] [5, 7]: 0% | kill of Episyrphus balteatus larvae [% Abbott] [5, 8]: 0% | kill of Episyrphus balteatus larvae [% Abbott] [5, 9]: 10.3% | kill of Episyrphus balteatus larvae [% Abbott] [5, 10]: 6.1% | kill of Episyrphus balteatus larvae [% Abbott] [5, 11]: 10.3% | kill of Episyrphus balteatus larvae [% Abbott] [5, 12]: 9% | kill of Episyrphus balteatus larvae [% Abbott] [5, 13]: 0% | kill of Episyrphus balteatus larvae [% Abbott] [5, 14]: 0% | kill of adult Anthocoris nemoralis [% Abbott] [6, 7]: 0% | kill of adult Anthocoris nemoralis [% Abbott] [6, 8]: 0% | kill of adult Anthocoris nemoralis [% Abbott] [6, 9]: 0% | kill of adult Anthocoris nemoralis [% Abbott] [6, 10]: 0% | kill of adult Anthocoris nemoralis [% Abbott] [6, 11]: 1.7% | kill of adult Anthocoris nemoralis [% Abbott] [6, 12]: 3.3% | kill of adult Anthocoris nemoralis [% Abbott] [6, 13]: 3.3% | kill of adult Anthocoris nemoralis [% Abbott] [6, 14]: 6.7%
